In patent US20120178177A1, “Biological Components Within the Cerebrospinal Fluid” (priority 2009, published 2012):

How the values were obtained:
SH-SY5Y cells [1] = assay: Two-dimensional gel electrophoresis of MPs from SH-SY5Y cells; type: cell-based, human; conditions: MPs from SH-SY5Y cells treated with Staurosporine 100 and 500 nM vs vehicle; FIG. 5B
Method: (§1) The SH-SY5Y cells were maintained and differentiated in cell culture conditions as described under the Materials & Methods section of Example 2. Cells were then treated for 24 hours with Staurosporine at two different concentrations or with vehicle only. At the end of the treatment, culture medium was collected and MPs were isolated and subsequently quantified by flow cytometry. Those results are representative of several independent experiments. The resulting MPs populations have been isolated and characterized by flow cytometry (A) or by two-dimensional gel electrophoresis (B) as described in the Materials and Methods section. The three gels have been compared in an area comprised between approximately 10-60 kDa and pl 3.0 to 7.0. The boxes (named C, 1, and 2) define specific areas of interest in the captured images.
The human neuronal cell line SH-SY5Y (ATCC CRL-2266) was cultured in MEM/Ham's F12 medium (1:1) supplemented with 10% foetal bovine serum. Cells were seeded at 55,000 cells/cm^2. Cell differentiation was induced by adding 9-cis retinoic acid (5 μM) for 5 days directly to complete culture medium. […]
MPs populations were obtained from Staurosporine-induced SH-SY5Y cells as indicated above. […] Non-protein impurities were removed using the ReadyPrep 2D Cleanup kit prior to isoelectrofocalisation (IEF) steps. […]

SH-SY5Y cells [2] = assay: Quantification of Annexin V-positive MPs released by differentiated SH-SY5Y cells (flow cytometry); type: cell-based, human; conditions: 24 hours treatment, Staurosporine 100 and 500 nM vs vehicle DMSO 0.1%, FIG. 5A
Method: as §1
The human neuronal cell line SH-SY5Y (ATCC CRL-2266) was cultured in MEM/Ham's F12 medium (1:1) supplemented with 10% foetal bovine serum. Cells were seeded at 55,000 cells/cm^2. Cell differentiation was induced by adding 9-cis retinoic acid (5 μM) for 5 days directly to complete culture medium. After 5 days, medium was replaced with complete medium supplemented with BDNF (50 ng/ml) for additional 5 days. […]
MPs quantifications were performed by flow cytometry using fluorescein-labelled, His-tagged Annexin V, as indicated in Example 1 for CS-MPs and Plasma MPs.

male SD rats [3] = assay: Quantification of rat CS-MPs in CSF by Annexin V flow cytometry after intracerebroventricular injection; type: in vivo; conditions: LPS 50 μg/animal intracerebroventricular vs saline; CSF from cisterna magna after 24 hours; FIG. 3A
Method: (§2) Two groups of male SD rats (n=8 for each group) were intracerebroventricularly injected with either vehicle (Saline; NaCl 0.9%) or a test substance (Lipopolysaccharides; LPS). After 24 hours, CSF was collected directly in the cisterna magna and blood was obtained by retro-orbital puncture from each animal. CS-MPs and plasma MPs populations were prepared as described in the Materials & Methods of Example 1 and the concentrations of CS-MPs (A) and Plasma MPs (B) populations in the samples were quantified for both groups of animals by flow cytometry. Data are expressed as Mean±SEM (*: p<0.05). […] In a control experiment (C), the CSF and blood samples were collected respectively in the cisterna magna and by retro-orbital, puncture from healthy male SD rats (n=8). CS-MPs and Plasma MPs populations were prepared as described in the Materials & Methods section of Example 1 and then quantified by flow cytometry. Data are expressed as Mean±SEM (*: p<0.05). […]
(§3) The quantifications were performed using a FC500 flow cytometer (Beckman-Coulter, France) by incubating for 30 minutes in the dark each samples (30 μl) with 60 ng of His-tagged, Fluorescein-labelled Annexin V in incubation buffer (2.5 mM CaCl2, 140 mM NaCl, 10 mM HEPES pH 7.4). […] Each sample was then analyzed by flow cytometry. […]

TNFalpha = assay: Gene expression of inflammatory markers in rat brain after intracerebroventricular injection (RT-QPCR); type: in vivo; conditions: LPS 50 μg/animal intracerebroventricular; rat brain (cortex, striatum, hippocampus); relative to 36B4 mRNA
Method: (§4) This experiment was elaborated on the basis of protocols described in previous publications (Sanna P et al., 1995). Briefly, male SD rats (225-250 g, CERJ, France) were anesthetized with pentobarbital (55 mg/kg) and positioned in a stereotaxic frame. Then, they received an intracerebroventricular injection of LPS (50 μg/animal in 3.3 μl of saline buffer) or saline (NaCl 0.9%) using a Kopf apparatus. The coordinates for the sterotaxic injections were −2.3 mm dorsal/ventral, −1.4 mm lateral, and −0.6 mm anterior/posterior from the bregma.
(§5) Total RNA was extracted using Qiagen RNA extraction kits following manufacturer's instructions. Total RNA was treated with DNase I (Ambion Inc., Austin, Tex., USA) at 37° C. for 30 minutes, followed by inactivation at 75° C. for 5 minutes. Real time quantitative PCR (RT-QPCR) assays were performed using an Applied Biosystems 7900 sequence detector. Total RNA (1 μg) was reverse transcribed with random hexamers using Taqman reverse-transcription reagents kit (Applied Biosystems) following the manufacturer's protocol. Gene expression levels were determined by Sybr green assays. 36B4 transcript was used as an internal control to normalize the variations for RNA amounts. Gene expression levels are expressed relative to 36B4 mRNA levels.
(§6) The specific primers used for the quantification were: […]

IL1beta = assay: as above; type: in vivo; conditions: LPS 50 μg/animal intracerebroventricular; rat brain (cortex, striatum, hippocampus); relative to 36B4 mRNA
Method: as §4, §5, §6

male SD rats [4] = assay: Quantification of rat Plasma MPs by Annexin V flow cytometry after intracerebroventricular injection; type: in vivo; conditions: LPS 50 μg/animal intracerebroventricular vs saline; plasma after 24 hours; FIG. 3B
Method: as §2, §3

| Molecule | protein content of MPs on two-dimensional gel (SH-SY5Y cells [1]) | change in Annexin V-positive MPs in cell culture medium (SH-SY5Y cells [2]) | induction of CS-MP levels (male SD rats [3]) [fold] | induction of TNFalpha gene expression (TNFalpha) [fold] | induction of IL1beta gene expression (IL1beta) [fold] | change of Plasma MPs (male SD rats [4]) |
| --- | --- | --- | --- | --- | --- | --- |
| CN[C@@H]1C[C@H]2O[C@@](C)([C@@H]1OC)n1c3ccccc3c3c4c(c5c6ccccc6n2c5c31)C(=O)NC4 [Staurosporine] | evident enrichment in proteins | significant and dose-dependent increase |  |  |  |  |
| Lipopolysaccharides [LPS] |  |  | 3 | 6 | 40 | without a simultaneous and significant increase |
